SMILES strings stand for the structures.

In one experiment the test system is MMP1 expression by activated synovial fibroblasts (RASFs). Briefly: MMP assay: MMP1 expression by RASFs triggered with 'complex trigger' (supernatant of TNF-α-treated THP-1 cells). Type of experiment: cell-based. The following applies: 'complex trigger' 12.5%, 48 hrs, MMP1 ELISA, semi-quantitative score, read-out: Reduction MMP1/THP1. On the procedure:
A 384-well format ELISA for measurement of MMP1 is developed. Various primary antibodies are tested, as well as various ELISA protocols. The following protocol is developed and validated to measure MMP1 levels in SF supernatant in 384 well plates: white Lumitrac 600 384 well plates (Greiner) are coated with 2 μg/mL anti-MMP1 antibody MAB1346 (Chemicon). The antibody is diluted in buffer 40 (1.21 g Tris base (Sigma), 0.58 g NaCl (Calbiochem) and 5 mL 10% NaN3 (Sigma) in 1 L milliQ water and adjusted to pH 8.5). After overnight incubation at 4° C., plates are washed with PBS (80 g NaCl, 2 g KCl (Sigma), 11.5 g Na2HPO4.7H2O and 2 g KH2PO4 in 10 L milliQ; pH 7.4) and blocked with 100 μL/well Casein buffer (2% Casein (VWR International) in PBS). Next day, casein buffer is removed from ELISA plates and replaced by 50 μL/well EC buffer (4 g casein, 2.13 g Na2HPO4 (Sigma), 2 g bovine albumin (Sigma), 0.69 g NaH2PO4.H2O (Sigma), 0.5 g CHAPS (Roche), 23.3 g NaCl, 4 mL 0.5 M EDTA pH 8 (Invitrogen), 5 mL 10% NaN3 in 1 L milliQ and adjusted to pH 7.0). 0.25 mM DTT (Sigma) is added to the thawed sample plates. After removal of the EC buffer, 20 μL of sample is transferred to the ELISA plates. After overnight incubation at 4° C. plates are washed twice with PBS and once with PBST (PBS with 0.05% Tween-20 (Sigma)) and incubated with 35 μL/well biotinylated anti-MMP1 antibody solution (R&D). This secondary antibody is diluted in buffer C (0.82 g NaH2PO4.H2O, 4.82 g Na2HPO4, 46.6 g NaCl, 20 g bovine albumin and 4 mL 0.5M EDTA pH 8 in 2 L milliQ and adjusted to pH 7.0) at a concentration of 5 μg/mL. After 2 h of incubation at RT, plates are washed as described above and incubated with 50 μL/well streptavidin-HRP conjugate (Biosource). Streptavidin-HRP conjugate is diluted in buffer C at a concentration of 0.25 μg/mL. After 45 min, plates are washed as described above and incubated for 5 min with 50 μL/well BM Chem ELISA Substrate (Roche). Readout is performed on the Luminoscan Ascent Luminometer (Labsystems) with an integration time of 200 msec or with an Envision reader (Perkin Elmer).
The increase of MMP1 expression by SFs upon treatment with cytokines relevant in the field of RA (TNF-α, IL1β and OSM) or a combination thereof is shown in FIG. 2 as white bars. For this experiment, SFs are seeded in 96 well plates, 3,000 cells/well. 24 h later, the medium is changed to M199 medium supplemented with 1% FBS. One day after the medium change, cytokines or combinations thereof are added to the cultures, each cytokine being added to a final concentration of 25 ng/mL. 72 h after cytokine addition, the supernatant is collected and processed in the MMP1 ELISA as described in the protocol given above. In parallel with this experiment, SFs are triggered, using the same protocol, with the supernatant of THP1 cells (2-fold diluted in M199+1% FBS) treated with the same cytokines or combinations of cytokines for 48 h in M199 medium+1% FBS. The induction of the MMP1 expression by SFs triggered with the supernatants of TNF-α-treated THP1 cells is stronger (>4.5 fold induction) as compared to the SFs triggered with recombinant TNF-α alone (3-fold induction) and almost equals the 5-fold induction obtained by a mixture of 3 purified cytokines (TNF-α, IL1βb, OSM). […] As the role of TNF-α in the RA pathogenesis is validated (TNF-α-blockers as Infliximab and Ethanercept show some efficacy in the treatment of RA patients) and the THP-1 cells are representative for monocytes/macrophages present in the joint of RA patients, the TNF-α-based trigger mixture prepared by contacting THP-1 cells with TNF-α will contain factors present in the joints of RA patients and subsequently is relevant to RA. This TNF-α-based complex trigger, further referred to as the ‘complex trigger’, will further be used as basis for the ‘MMP assay’. For preparing a stock of this ‘complex trigger’, THP-1 cells are used between passage 8 and 16. […]
(In general: An ELISA detects its analyte on a solid surface through an enzyme-linked reagent.)
With `CN1CCN(c2ccc(Nc3ccc(-c4cc[nH]c(=O)c4)n4ncnc34)cc2)CC1` [Example 4, 4-{8-[4-(4-Methyl-piperazin-1-yl)-phenylamino]-[1,2,4]triazolo[1,5-a]pyridin-5-yl}-1H-pyridin-2-one], the IC50 fell in the range of 1 to 5 µM. Still for that read-out and setting: the value for `CN1CCN(c2ccc(Nc3ccc(-c4cn[nH]c4)n4ncnc34)cc2)CC1` [Example 36, N-[4-(4-methylpiperazin-1-yl)phenyl]-5-(1H-pyrazol-4-yl)[1,2,4]triazolo[1,5-a]pyridin-8-amine] was over 10 µM; that for `O=C(NCc1cccnc1)c1ccc(Nc2ccc(-c3cn[nH]c3)n3ncnc23)cc1` [Example 3, 4-[5-(1H-Pyrazol-4-yl)-[1,2,4]triazolo[1,5-a]pyridin-8-ylamino]-N-pyridin-3-ylmethyl-benzamide] was 1 to 5 µM. For `Cc1[nH]ncc1-c1ccc(Nc2ccc(N3CCOCC3)cc2)c2ncnn12` [Example 8, [5-(5-Methyl-1H-pyrazol-4-yl)-[1,2,4]triazolo[1,5-a]pyridin-8-yl]-(4-morpholin-4-yl-phenyl)-amine], the IC50 fell in the range of 5 to 10 µM. For the molecule `O=C(NCc1cccnc1)c1ccc(Nc2ccc(-c3cc[nH]c(=O)c3)n3ncnc23)cc1` [Example 5, 4-[5-(2-oxo-1,2-dihydro-pyridin-4-yl)-[1,2,4]triazolo[1,5-a]pyridin-8-ylamino]-N-pyridin-3-ylmethyl-benzamide], the IC50 is over 10 µM.

Still in this experiment, the particulars now being: Homo sapiens, THP-1, 48 h, 'complex trigger' 12.5%, MMP1 ELISA, semi-quantitative score, read-out: Reduction MMP1/THP1.
For `O=C(NCc1cccnc1)c1ccc(Nc2ccc(-c3cn[nH]c3)n3ncnc23)cc1` [Example 37, 4-{[5-(1H-pyrazol-4-yl)[1,2,4]triazolo[1,5-a]pyridin-8-yl]amino}-N-(pyridin-3-ylmethyl)benzamide], the IC50 lay within 1 to 5 µM. The same measure, in the same setting: the value for `CN1CCN(c2ccc(Nc3ccc(-c4cc[nH]c(=O)c4)n4ncnc34)cc2)CC1` [Example 40, 4-(8-{[4-(4-methylpiperazin-1-yl)phenyl]amino}[1,2,4]triazolo[1,5-a]pyridin-5-yl)pyridin-2(1H)-one] was 1 to 5 µM; that for `NC(=O)c1ccc(-c2ccc(Nc3ccc(N4CCOCC4)cc3)c3ncnn23)cc1` [Example 1, 4-[8-(4-Morpholin-4-yl-phenylamino)-[1,2,4]triazolo[1,5-a]pyridin-5-yl]-benzamide] was over 10 µM. Consider `CN1CCN(c2ccc(Nc3ccc(-c4cn[nH]c4)n4ncnc34)cc2)CC1` [Example 2, [4-(4-Methyl-piperazin-1-yl)-phenyl]-[5-(1H-pyrazol-4-yl)-[1,2,4]triazolo[1,5-a]pyridin-8-yl]-amine], for which the IC50 fell in the range of 5 to 10 µM. Same read-out and setting: as for `O=C(NCc1cccnc1)c1ccc(Nc2ccc(-c3cc[nH]c(=O)c3)n3ncnc23)cc1` [Example 41, 4-{[5-(2-oxo-1,2-dihydropyridin-4-yl)[1,2,4]triazolo[1,5-a]pyridin-8-yl]amino}-N-(pyridin-3-ylmethyl)benzamide], the figure is over 10 µM; as for `CN1CCN(c2ccc(Nc3ccc(-c4ccc(C(N)=O)c(F)c4)n4ncnc34)cc2)CC1` [Example 42, 2-fluoro-4-(8-{[4-(4-methylpiperazin-1-yl)phenyl]amino}[1,2,4]triazolo[1,5-a]pyridin-5-yl)benzamide], over 10 µM; as for `c1nc2c(Nc3ccc(N4CCOCC4)cc3)ccc(-c3cn[nH]c3)n2n1` [Example 7, (4-Morpholin-4-yl-phenyl)-[5-(1H-pyrazol-4-yl)-[1,2,4]triazolo[1,5-a]pyridin-8-yl]-amine], 5 to 10 µM. For the molecule `Cc1[nH]ncc1-c1ccc(Nc2ccc(N3CCOCC3)cc2)c2ncnn12` [Example 39, 5-(5-methyl-1H-pyrazol-4-yl)-N-(4-morpholin-4-ylphenyl)[1,2,4]triazolo[1,5-a]pyridin-8-amine], the IC50 was over 10 µM.

For the origin of these results see patent US7977352B2, “Triazolopyridine compounds useful for the treatment of degenerative and inflammatory diseases” (Galapagos NV, priority 2006, dated 2011).
